Measurements as given in patent US6054435A, “6-O-substituted macrolides having antibacterial activity” (priority 1999, dated 2000).
Converted amounts (≈) assume the structure as drawn.

Legend:
Test in all cases: in vitro antibacterial activity (MIC), agar dilution
Type in all cases: cell-based
[1] = test system: Micrococcus luteus ATCC 9341; details: organism code OO; BHI agar, 35-37° C., 20 to 24 hours; unit assumed
Procedure: (§1) Representative compounds of the present invention were assayed in vitro for antibacterial activity as follows: Twelve petri dishes containing successive aqueous dilutions of the test compound mixed with 10 mL of sterilized Brain Heart Infusion (BHI) agar (Difco 0418-01-5) were prepared. Each plate was inoculated with 1:100 (or 1:10 for slow-growing strains, such as Micrococcus and Streptococcus) dilutions of up to 32 different microorganisms, using a Steers replicator block. […] In addition, a control plate, using BHI agar containing no test compound, was prepared and incubated at the beginning and end of each test.
(§2) An additional plate containing a compound having known susceptibility patterns for the organisms being tested and belonging to the same antibiotic class as the test compound was also prepared and incubated as a further control, as well as to provide test-to-test comparability.
(§3) After incubation, each plate was visually inspected. The minimum inhibitory concentration (MIC) was defined as the lowest concentration of drug yielding no growth, a slight haze, or sparsely isolated colonies on the inoculum spot as compared to the growth control.

[2] = test system: Staphylococcus aureus A5177; details: organism code BB; BHI agar, 35-37° C., 20 to 24 hours; unit assumed
Procedure: as §1, §2, §3

[3] = test system: Streptococcus Pneumonia ATCC6303; details: organism code XX; BHI agar, 35-37° C., 20 to 24 hours; unit assumed
Procedure: as §1, §2, §3

[4] = test system: Staphylococcus aureus NCTC10649M; details: organism code EE; BHI agar, 35-37° C., 20 to 24 hours; unit assumed
Procedure: as §1, §2, §3

[5] = test system: Staphylococcus aureus 1775; details: organism code GG; BHI agar, 35-37° C., 20 to 24 hours; unit assumed
Procedure: as §1, §2, §3

[6] = test system: Streptococcus Pneumonia 5649; details: organism code ZZA; BHI agar, 35-37° C., 20 to 24 hours; unit assumed
Procedure: as §1, §2, §3

[7] = test system: Streptococcus pyogenes PIU 2548; details: organism code NN; BHI agar, 35-37° C., 20 to 24 hours; unit assumed
Procedure: as §1, §2, §3

[8] = test system: Enterococcus faecium ATCC 8043; details: organism code II; BHI agar, 35-37° C., 20 to 24 hours; unit assumed
Procedure: as §1, §2, §3

[9] = test system: Staphylococcus aureus CMX 553; details: organism code FF; BHI agar, 35-37° C., 20 to 24 hours; unit assumed
Procedure: as §1, §2, §3

Escherichia coli SS = details: organism code RR; BHI agar, 35-37° C., 20 to 24 hours; unit assumed
Procedure: as §1, §2, §3

[10] = test system: Staphylococcus aureus A-5278; details: organism code CC; BHI agar, 35-37° C., 20 to 24 hours; unit assumed
Procedure: as §1, §2, §3

[11] = test system: Streptococcus agalactiae CMX 508; details: organism code KK; BHI agar, 35-37° C., 20 to 24 hours; unit assumed
Procedure: as §1, §2, §3

[12] = test system: Micrococcus luteus ATCC 4698; details: organism code PP; BHI agar, 35-37° C., 20 to 24 hours; unit assumed
Procedure: as §1, §2, §3

Escherichia coli DC-2 = details: organism code SS; BHI agar, 35-37° C., 20 to 24 hours; unit assumed
Procedure: as §1, §2, §3

[13] = test system: Streptococcus bovis A-5169; details: organism code JJ; BHI agar, 35-37° C., 20 to 24 hours; unit assumed
Procedure: as §1, §2, §3

[14] = test system: Nocardia Asteroides ATCC9970; details: organism code VV; BHI agar, 35-37° C., 20 to 24 hours; unit assumed
Procedure: as §1, §2, §3

[15] = test system: Streptococcus pyogenes EES61; details: organism code LL; BHI agar, 35-37° C., 20 to 24 hours; unit assumed
Procedure: as §1, §2, §3

[16] = test system: Mycobacterium smegmatis ATCC 114; details: organism code UU; BHI agar, 35-37° C., 20 to 24 hours; unit assumed
Procedure: as §1, §2, §3

[17] = test system: Staphylococcus aureus ATCC 6538P; details: organism code AA; BHI agar, 35-37° C., 20 to 24 hours; unit assumed
Procedure: as §1, §2, §3

Escherichia coli JUHL = details: organism code QQ; BHI agar, 35-37° C., 20 to 24 hours; unit assumed
Procedure: as §1, §2, §3

[18] = test system: Staphylococcus epidermidis 3519; details: organism code HH; BHI agar, 35-37° C., 20 to 24 hours; unit assumed
Procedure: as §1, §2, §3

Candida albicans CCH 442 = details: organism code TT; BHI agar, 35-37° C., 20 to 24 hours; unit assumed
Procedure: as §1, §2, §3

[19] = test system: Streptococcus Pneumonia 5979; details: organism code ZZ; BHI agar, 35-37° C., 20 to 24 hours; unit assumed
Procedure: as §1, §2, §3

[20] = test system: Streptococcus Pneumonia GYR 1171; details: organism code YY; BHI agar, 35-37° C., 20 to 24 hours; unit assumed
Procedure: as §1, §2, §3

[21] = test system: Streptococcus pyogenes 930; details: organism code MM; BHI agar, 35-37° C., 20 to 24 hours; unit assumed
Procedure: as §1, §2, §3

[22] = test system: Staphylococcus aureus CMX 642A; details: organism code DD; BHI agar, 35-37° C., 20 to 24 hours; unit assumed
Procedure: as §1, §2, §3

[23] = test system: Haemophilis Influenzae DILL AMP R; details: organism code WW; BHI agar, 35-37° C., 20 to 24 hours; unit assumed
Procedure: as §1, §2, §3

Row | SMILES | MIC [1] [µg/mL] | MIC [2] [µg/mL] | MIC [3] [ng/mL] | MIC [4] [µg/mL] | MIC [5] [µg/mL] | MIC [7] [µg/mL] | MIC [9] [µg/mL] | MIC (Escherichia coli SS) [µg/mL] | MIC [10] [µg/mL] | MIC [11] [µg/mL] | MIC [12] [µg/mL] | MIC (Escherichia coli DC-2) [µg/mL] | MIC [13] [µg/mL] | MIC [14] [µg/mL] | MIC [15] [µg/mL] | MIC [16] [µg/mL] | MIC [17] [µg/mL] | MIC (Escherichia coli JUHL) [µg/mL] | MIC [18] [µg/mL] | MIC (Candida albicans CCH 442) [µg/mL] | also measured
1 | CC[C@H]1OC(=O)[C@H](C)C(=O)[C@H](C)[C@@H](O[C@@H]2O[C@H](C)C[C@H](N(C)C)[C@H]2O)[C@](C)(OC/C=C/c2cncc(-c3cccnc3)c2)C[C@@H](C)C(=O)[C@H](C)[C@H]2NC(=O)O[C@@]21C [Example 47] | 0.01 (≈ 0.0126 µM) | 0.05 (≈ 0.0631 µM) | 8 (≈ 0.0101 µM) | 0.1 (≈ 0.126 µM) | > 100 | 0.2 (≈ 0.252 µM) | 0.05 (≈ 0.0631 µM) | 0.39 (≈ 0.492 µM) | > 100 | 0.01 (≈ 0.0126 µM) | 0.2 (≈ 0.252 µM) | 25 (≈ 31.5 µM) | 0.01 (≈ 0.0126 µM) | 0.05 (≈ 0.0631 µM) | 0.02 (≈ 0.0252 µM) | 0.78 (≈ 0.984 µM) | 0.05 (≈ 0.0631 µM) | 50 (≈ 63.1 µM) | 0.1 (≈ 0.126 µM) | > 100 | MIC [6]: 0.5 µg/mL (≈ 0.631 µM); MIC [8]: 0.05 µg/mL (≈ 0.0631 µM); MIC [19]: > 128 µg/mL; MIC [20]: 8 ng/mL (≈ 0.0101 µM); MIC [21]: 50 µg/mL (≈ 63.1 µM); MIC [22]: 0.05 µg/mL (≈ 0.0631 µM)
2 | CC[C@H]1OC(=O)[C@H](C)C(=O)[C@H](C)[C@@H](O[C@@H]2O[C@H](C)C[C@H](N(C)C)[C@H]2O)[C@](C)(OC/C=C/c2cncc(-c3cnc4ccccc4c3)c2)C[C@@H](C)C(=O)[C@H](C)[C@H]2NC(=O)O[C@@]21C [Example 44] | 0.01 (≈ 0.0119 µM) | 0.1 (≈ 0.119 µM) | ≤ 4 | 0.2 (≈ 0.237 µM) | > 100 | 0.1 (≈ 0.119 µM) | 0.05 (≈ 0.0593 µM) | 0.2 (≈ 0.237 µM) | > 100 | 0.05 (≈ 0.0593 µM) | 0.1 (≈ 0.119 µM) | 50 (≈ 59.3 µM) | 0.01 (≈ 0.0119 µM) | 0.1 (≈ 0.119 µM) | 0.01 (≈ 0.0119 µM) | 0.39 (≈ 0.463 µM) | 0.1 (≈ 0.119 µM) | 100 (≈ 119 µM) | 0.1 (≈ 0.119 µM) | > 100 | MIC [8]: 0.05 µg/mL (≈ 0.0593 µM); MIC [23]: 2 µg/mL (≈ 2.37 µM); MIC [19]: 8 µg/mL (≈ 9.49 µM); MIC [20]: ≤ 4 ng/mL; MIC [21]: 6.2 µg/mL (≈ 7.35 µM); MIC [22]: 0.1 µg/mL (≈ 0.119 µM)
3 | CC[C@H]1OC(=O)[C@H](C)C(=O)[C@H](C)[C@@H](O[C@@H]2O[C@H](C)C[C@H](N(C)C)[C@H]2O)[C@](C)(OCC#Cc2ccc(-c3cccc(F)c3)s2)C[C@@H](C)C(=O)[C@H](C)[C@H]2NC(=O)O[C@@]21C [Example 15] | 0.05 (≈ 0.0615 µM) | 0.1 (≈ 0.123 µM) | 15 (≈ 0.0185 µM) | 0.2 (≈ 0.246 µM) | 50 (≈ 61.5 µM) | 0.2 (≈ 0.246 µM) | 0.1 (≈ 0.123 µM) | 0.39 (≈ 0.48 µM) | 50 (≈ 61.5 µM) | 0.05 (≈ 0.0615 µM) | 0.1 (≈ 0.123 µM) | > 100 | 0.05 (≈ 0.0615 µM) | 0.2 (≈ 0.246 µM) | 0.05 (≈ 0.0615 µM) | 0.39 (≈ 0.48 µM) | 0.1 (≈ 0.123 µM) | > 100 | 0.2 (≈ 0.246 µM) | > 100 | MIC [6]: 0.25 µg/mL (≈ 0.308 µM); MIC [23]: 2 µg/mL (≈ 2.46 µM); MIC [19]: 0.25 µg/mL (≈ 0.308 µM); MIC [20]: 15 ng/mL (≈ 0.0185 µM); MIC [21]: 3.1 µg/mL (≈ 3.81 µM); MIC [22]: 0.2 µg/mL (≈ 0.246 µM)
4 | CC[C@H]1OC(=O)[C@H](C)C(=O)[C@H](C)[C@@H](O[C@@H]2O[C@H](C)C[C@H](N(C)C)[C@H]2O)[C@](C)(OC/C=C/c2cncc(-c3ccccn3)c2)C[C@@H](C)C(=O)[C@H](C)[C@H]2NC(=O)O[C@@]21C [Example 43] | 0.02 (≈ 0.0252 µM) | 0.05 (≈ 0.0631 µM) | ≤ 4 | 0.2 (≈ 0.252 µM) | > 100 | 0.2 (≈ 0.252 µM) | 0.05 (≈ 0.0631 µM) | 0.39 (≈ 0.492 µM) | > 100 | 0.05 (≈ 0.0631 µM) | 0.2 (≈ 0.252 µM) | 25 (≈ 31.5 µM) | 0.02 (≈ 0.0252 µM) | 0.05 (≈ 0.0631 µM) | 0.02 (≈ 0.0252 µM) | 0.78 (≈ 0.984 µM) | 0.05 (≈ 0.0631 µM) | 50 (≈ 63.1 µM) | 0.1 (≈ 0.126 µM) | > 100 | MIC [8]: 0.05 µg/mL (≈ 0.0631 µM); MIC [23]: 2 µg/mL (≈ 2.52 µM); MIC [19]: 64 µg/mL (≈ 80.7 µM); MIC [20]: ≤ 4 ng/mL; MIC [21]: 25 µg/mL (≈ 31.5 µM); MIC [22]: 0.1 µg/mL (≈ 0.126 µM)
